In patent US4230719A, “Novel 2-[4-(3-methyl-2-thienyl)phenyl]propionic acid and pharmaceutically acceptable salt thereof and method for treating symptoms of inflammation and pain” (Toyama Chemical Co., Ltd., priority 1977, dated 1980):
Where two headings read alike, the source gives them in different places.

Tests used:
[1] = tested on: phenylbenzoquinone writhing; test: Analgesic activity, phenylbenzoquinone method in mouse; format: in vivo, mouse (ddY strain, male); details: for Frequency of writhing, mean ± S.E.: during 10 minutes; for inhibition in vivo at 5 mg/kg / inhibition in vivo at 10 mg/kg / inhibition in vivo at 20 mg/kg: Mus musculus, 10 min, writhing, read-out: Inhibition; for inhibition in vivo at 5 mg/kg / inhibition in vivo at 10 mg/kg / inhibition in vivo at 20 mg/kg / ED50: po; for ED50: mouse, read-out: ED50
Method: (i) Phenylbenzoquinone method in mouse
The test compound was orally administered to each ddY strain male mouse (weighing 22±2 g; 8 mice per group). […] The frequency of writhing during 10 minutes from 5-minutes after the injection of phenylbenzoquinone was measured and compared with that of a control group to which a 0.5% Tween 80 solution was administered. The percent inhibition was calculated by the following equation: [formula]

[2] = tested on: Phenol Red (PSP) excretion; test: Uricosuric action (a), inhibition of Phenol Red (PSP) excretion; format: in vivo, rabbit (male)
Method: (a) The action was examined by the method of B. B. Brodie et al. who reported that the inhibitory action on Phenol Red (PSP) excretion correlates with the uricosuric action [Proc. Soc. Exp. Biol. Med., 86, 884 (1954)]. To a male rabbit weighing 2 to 3 kg was intraperitoneally administered the test compound. After 30 minutes, 75 mg/kg of a Phenol Red suspension was injected into the pinna vein of the rabbit and 30 minutes thereafter a blood sample was drawn from the pinna vein. The blood sample was centrifuged and the serum was diluted with physiological saline. The diluted serum was treated with 0.1 N NaOH to develop the color. The concentration of Phenol Red in the serum was determined from the absorbance at 560 mμ.

in vivo = details: rat, po
[3] = tested on: Carrageenin-induced edema; test: Carrageenin-induced edema; format: in vivo, rat (Donryu strain, male); details: Rattus norvegicus, po, mean in 5 hours, read-out: Inhibitory percent of swelling; for inhibition in vivo at 1 mg/kg: 1 mg/kg p.o.; for inhibition in vivo at 5 mg/kg: 5 mg/kg p.o.
Method: (iii) Carrageenin-induced edema
Each of the 6 Donryu strain male rats per group (each weighing about 140 g), which had been fasted overnight, was orally loaded with 4 ml of water and, after 30 minutes, the test compound was orally administered thereto. Thirty minutes thereafter, a 1%(Wt/V) solution of carrageenin in physiological saline was subcutaneously injected into the subplantar region of the left hind paw. At a time interval of one hour, starting from the end of the first hour till the end of the fifth hour after injection of carrageenin, the paw volume was measured by means of a manometer and pressure transducer. By comparison with the percent increase in swelling of the control group of rats to which a 0.5%(V/V) solution of Tween 80 had been administered, the mean inhibitory percent in 5 hours of swelling was calculated by the following equation: [formula]

[4] = tested on: fever (Mycobacterium butyricum); test: Antipyretic action; format: in vivo, rat (Wistar strain, female); details: for ED1.0: po, rat, read-out: ED1.0
Method: A suspension (0.6 mg/0.1 ml) of killed and dried Mycobacterium butyricum in liquid paraffin was subcutaneously injected in an amount of 0.1 ml into the subplantar region of the hind paw of each Wistar strain female rat weighing about 180 g. After 14 hours, the fevered rats were divided into groups, and each test compound was orally administered to each group to examine the antipyretic effect.

Vascular permeability [5] = test: Vascular permeability in mice (Whittle's method); format: in vivo, mouse (ddY strain, male); details: for Inhibition: dye leakage; for ED30: po, mouse, read-out: ED30
Method: (i) Vascular permeability in mice (Whittle's method)
The test compound was orally administered to each ddY strain male mouse (weighing each about 20 g). After 20 minutes, 0.1 ml/10 g of a 4%(Wt/V) solution of Pontamine Sky Blue in physiological saline was intravenously injected and 10 minutes thereafter 0.1 ml/10 g of a 0.7%(V/V) solution of acetic acid in physiological saline was injected intraperitoneally. After 30 minutes, the mice were killed by suffocation with chloroform. After immediate laparotomy, the dye leaked into the peritoneal cavity was washed out with distilled water. The washings were made up with water to 30 ml and the absorbance at 620 mμ was measured. The amount of leaked dye per 20 g of mouse weight was compared.

[6] = tested on: threshold value of pain due to pressure stimuli (tail); details: for Analgesic effect: 100% = threshold raised by 160 g; for ED50: Mus musculus, po
[7] = tested on: pain threshold (brewer's yeast, hind paw); test: Analgesic activity, Randall-Selitto method in rat; format: in vivo, rat (Wistar strain, male); details: for Inhibition: 100% = pain threshold raised by 150 g; for ED50: po, rat, read-out: ED50
Method: (ii) Randall-Selitto method in rat
After one hour, the test compound was orally administered. One hour thereafter, the pain threshold value was measured four times at a time interval of one hour. The mean value of four values obtained was taken as the pain threshold value of each group of rats. The activity of the drug was assumed to be 100% when the pain threshold value was raised by 150 g.

Vascular permeability [8] = test: Vascular permeability in rat (Whittle's method); format: in vivo, rat (Wistar strain, male); details: for ED30: po, rat, read-out: ED30
Method: (ii) Vascular permeability in rat (Whittle's method)
The test compound was orally administered to each Wistar strain male rat (weighing about 150 g) which had been fasted overnight. After 55 minutes, 0.5 ml of a 0.5% Evans Blue solution was intravenously injected. Five minutes thereafter, 0.2 ml/100 g of a 3%(V/V) acetic acid solution was intraperitoneally injected. After 60 minutes from the injection of the acetic acid solution, the rats were killed by suffocation with chloroform. After immediate laparotomy, the dye leaked into the peritoneal cavity was washed out with physiological saline. The washings were made up with the saline to 30 ml and the absorbance at 640 mμ was measured to examine the effect of the test compounds by comparing the amounts of leaked dye per rat with one another.

Adjuvant arthritis = test: Adjuvant arthritis; format: in vivo, rat (Sprague-Dawley strain, male); details: 1 mg/kg p.o./day, mean during one week
Method: A suspension containing 6 mg/ml of killed and dried Mycobacterium butyricum in liquid paraffin was subcutaneously injected into the subplantar region of the left hind paw of Sprague-Dawley strain male rats (weighing 180 to 200 g) in a proportion of 0.1 ml/rat. After 14 days, the rats having inflammatory paws of similar volumes were selected and the test compound was orally administered to the rats repeatedly at the rate shown in Table 4 during one week and the mean inhibitory percent of swelling during one week was determined.

Glomerulonephritis = test: Action on glomerulonephritis in rats; format: in vivo, rat (Wistar strain, male); details: 10 mg/kg p.o./day
Excerpt: (ii) Action on glomerulonephritis in rats
Glomerulonephritis was induced in Wistar strain male rats (each weighing 180 to 200 g) by use of an anti-rat's kidney rabbit serum obtained from the serum of a rabbit sensitized with a homogenate of rat's kidney cortice. To the rat producing stable proteinuria was orally administered the test compound repeatedly at the rate shown in Table 12 for 2 weeks, and the inhibition of uric protein was examined.

Compound: Cc1ccsc1-c1ccc(C(C)C(=O)O)cc1 (racemic) [Racemic compound, dl-2-[4-(3-methyl-2-thienyl)phenyl]propionic acid]
- Frequency of writhing, mean ± S.E. ([1]; 5 mg/kg p.o.): 18.6 ± 4.5
- Frequency of writhing, mean ± S.E. ([1]; 10 mg/kg p.o.): 11.8 ± 2.4
- Frequency of writhing, mean ± S.E. ([1]; 20 mg/kg p.o.): 3.3 ± 0.9
- inhibition in vivo at 5 mg/kg ([1]; 5 mg/kg p.o.): 21.2%
- inhibition in vivo at 10 mg/kg ([1]; 10 mg/kg p.o.): 50%
- inhibition in vivo at 20 mg/kg ([1]; 20 mg/kg p.o.): 86%
- ED50 [1]: 9.7 mg/kg
- Concentration of PSP in serum, mean ± S.E. ([2]; 10 mg/kg i.p.): 166.7 ± 25.1 µg/mL
- Concentration of PSP in serum, mean ± S.E. ([2]; 20 mg/kg i.p.): 249.3 ± 41.4 µg/mL
- LD50 (in vivo): 248 mg/kg
- inhibition in vivo at 1 mg/kg [3]: 21.2%
- inhibition in vivo at 5 mg/kg [3]: 48.5%
- Mean decrease in temp. ([4]; 0.2 mg/kg p.o.): 0.52 °C
- Mean decrease in temp. ([4]; 1 mg/kg p.o.): 1.20 °C
- Mean decrease in temp. ([4]; 5 mg/kg p.o.): 1.70 °C
- ED1.0 [4]: 0.66 mg/kg
- Dye leakage (P.S.B.) mean ± S.E. (Vascular permeability [5]; 5 mg/kg p.o.): 262.0 ± 21.1 μg/20g
- Dye leakage (P.S.B.) mean ± S.E. (Vascular permeability [5]; 10 mg/kg p.o.): 211.0 ± 26.0 μg/20g
- Dye leakage (P.S.B.) mean ± S.E. (Vascular permeability [5]; 20 mg/kg p.o.): 166.8 ± 13.8 μg/20g
- Inhibition (Vascular permeability [5]; 5 mg/kg p.o.): 18.3%
- Inhibition (Vascular permeability [5]; 10 mg/kg p.o.): 34.2%
- Inhibition (Vascular permeability [5]; 20 mg/kg p.o.): 48.0%
- ED30 (Vascular permeability [5]): 8.5 mg/kg
- Analgesic effect ([6]; 2.5 mg/kg p.o.): 33%
- Analgesic effect ([6]; 10 mg/kg p.o.): 50%
- Analgesic effect ([6]; 40 mg/kg p.o.): 85%
- ED50 [6]: 7 mg/kg
- Inhibition ([7]; 1 mg/kg p.o.): 44.3%
- Inhibition ([7]; 5 mg/kg p.o.): 45.2%
- Inhibition ([7]; 25 mg/kg p.o.): 66.9%
- ED50 [7]: 6.1 mg/kg
- Inhibition (Vascular permeability [8]; 0.5 mg/kg p.o.): 20.1%
- Inhibition (Vascular permeability [8]; 1 mg/kg p.o.): 27.6%
- Inhibition (Vascular permeability [8]; 5 mg/kg p.o.): 50.1%
- ED30 (Vascular permeability [8]): 1.1 mg/kg
- Inhibitory percent of swelling (Adjuvant arthritis): 14.4%

Compound: Cc1ccsc1-c1ccc(C(C)C(=O)O)cc1 (single isomer, unassigned; isomer d) [d-Isomer, d-2-[4-(3-methyl-2-thienyl)phenyl]propionic acid]
- Frequency of writhing, mean ± S.E. ([1]; 5 mg/kg p.o.): 14.5 ± 3.5
- Frequency of writhing, mean ± S.E. ([1]; 10 mg/kg p.o.): 9.9 ± 2.6
- Frequency of writhing, mean ± S.E. ([1]; 20 mg/kg p.o.): 5.4 ± 1.0
- inhibition in vivo at 5 mg/kg ([1]; 5 mg/kg p.o.): 38.6%
- inhibition in vivo at 10 mg/kg ([1]; 10 mg/kg p.o.): 58.1%
- inhibition in vivo at 20 mg/kg ([1]; 20 mg/kg p.o.): 77.1%
- ED50 [1]: 7.5 mg/kg
- Concentration of PSP in serum, mean ± S.E. ([2]; 10 mg/kg i.p.): 223.8 ± 3.9 µg/mL
- Concentration of PSP in serum, mean ± S.E. ([2]; 20 mg/kg i.p.): 267.3 ± 18.0 µg/mL
- LD50 (in vivo): 230 mg/kg
- inhibition in vivo at 1 mg/kg [3]: 40%
- inhibition in vivo at 5 mg/kg [3]: 57.2%
- Mean decrease in temp. ([4]; 0.2 mg/kg p.o.): 0.82 °C
- Mean decrease in temp. ([4]; 1 mg/kg p.o.): 1.18 °C
- Mean decrease in temp. ([4]; 5 mg/kg p.o.): 1.63 °C
- ED1.0 [4]: 0.44 mg/kg
- Dye leakage (P.S.B.) mean ± S.E. (Vascular permeability [5]; 5 mg/kg p.o.): 256.4 ± 15.9 μg/20g
- Dye leakage (P.S.B.) mean ± S.E. (Vascular permeability [5]; 10 mg/kg p.o.): 218.0 ± 14.3 μg/20g
- Dye leakage (P.S.B.) mean ± S.E. (Vascular permeability [5]; 20 mg/kg p.o.): 160.4 ± 10.3 μg/20g
- Inhibition (Vascular permeability [5]; 5 mg/kg p.o.): 20.1%
- Inhibition (Vascular permeability [5]; 10 mg/kg p.o.): 32.0%
- Inhibition (Vascular permeability [5]; 20 mg/kg p.o.): 50.0%
- ED30 (Vascular permeability [5]): 8.6 mg/kg
- Analgesic effect ([6]; 2.5 mg/kg p.o.): 38%
- Analgesic effect ([6]; 10 mg/kg p.o.): 61%
- Analgesic effect ([6]; 40 mg/kg p.o.): 80%
- ED50 [6]: 5.2 mg/kg
- Inhibition ([7]; 1 mg/kg p.o.): 37.1%
- Inhibition ([7]; 5 mg/kg p.o.): 48.5%
- Inhibition ([7]; 25 mg/kg p.o.): 72.9%
- ED50 [7]: 4.4 mg/kg
- Inhibition (Vascular permeability [8]; 0.2 mg/kg p.o.): 14.2%
- Inhibition (Vascular permeability [8]; 0.5 mg/kg p.o.): 28.1%
- Inhibition (Vascular permeability [8]; 1 mg/kg p.o.): 43.3%
- ED30 (Vascular permeability [8]): 0.52 mg/kg
- Inhibitory percent of swelling (Adjuvant arthritis): 21.6%

Compound: CC(=O)OCC(=O)[C@@]1(O)CC[C@H]2[C@@H]3CCC4=CC(=O)CC[C@]4(C)[C@H]3[C@@H](O)C[C@@]21C [Hydrocortisone acetate]
- Inhibition of uric protein (Glomerulonephritis; 7th day): 20.0%
- Inhibition of uric protein (Glomerulonephritis; 14th day): 29.0%
